Measured values from patent publication US20240000860A1, “METHODS FOR TREATING AUTISM SPECTRUM DISORDER” (priority 2020, published 2024).
Marks after values point to notes of the source that are not given here.

Key:
Format in all cases: in vivo
[1] = test system: gene pathways in mouse brain (prefrontal cortex); experiment: RNA sequencing of prefrontal cortex after supplemented metabolites: differentially expressed gene pathways; conditions: two weeks supplementation
Protocol: Transcriptomics data (RNA sequencing) was collected from the prefrontal cortex of 12-week old mice after consuming a low, medium, or high dosage of supplemented metabolites for two weeks. RNA sequencing used brain tissue to evaluate possible correlation between changes in relative changes in gene transcription with changes in behavior. The number of differentially expressed gene pathways at significance level of 0.05, 0.1, and 0.15 was determined (Table 1).

[2] = test system: mice; experiment: Elevated plus maze (anxiogenic behavior); conditions: for EPM closed arms / EPM open arms: behavioral assay summary, Yes/No; for active time in the closed arms of the maze / time spent in closed arms of elevated plus maze: vs control mice
Protocol: (§1) Mice were fed 80% of their total food as non-supplemented food (chow) for 4 days. For the next two weeks, mice were fed 80% of their total food as non-supplemented food and the remaining 20% was supplemented with selected metabolites(s). Mice were fed on food supplemented with various metabolites including 5-dodecacenoate (5D), glycodeoxycholate (GDC), ursodeoxycholate (UDC), or a control food lacking a supplement (CTL). Mouse behavior was tested using an elevated plus maze (FIG. 13), a three-chamber sociability test, and tracking wheel usage. During testing, mice were fed 80% of their total food as non-supplemented food and the remaining 20% was supplemented with the selected metabolites(s).
Anxiogenic behavior was tested by tracking time spent in closed arms of an elevated plus maze. Control mice were fed food lacking a supplement.

[3] = test system: mice; experiment: Habituation over three days (distance traveled, time in center, ambulatory time); conditions: for Habituation exploration / Habituation time in center: behavioral assay summary, Yes/No; for habituation: total distance traveled and exploratory activity: over three days
Protocol: as §1
Habituation over was tested with the […] (FIG. 16). […] Significance was tested with an ANOVA test.
Habituation was measured by tracking the amount of time spent in the center of the chamber (FIG. 18).
Active time was also measured as total ambulatory time and center ambulatory time.

[4] = test system: mice; experiment: Three-chamber sociability test; conditions: for Sociability: behavioral assay summary, Yes/No
Protocol: as §1
Additionally, the effect of supplementation with the metabolites on sociability was measured with a three-chamber sociability test (FIG. 21). This chamber tested for responses to social novelty.

[5] = test system: mice; experiment: Mouse wheel distance traveled; conditions: for night-time activity: after administering metabolites
Protocol: as §1
Lastly, mice fed with food supplemented with various metabolites were given a mouse wheel and distance traveled was tracked.

[6] = test system: CNTNAP2 mice; experiment: Gut microbiota taxonomic composition in colons with 5D supplementation
Protocol: Genera under the family Lachnospiraceae and Ruminococcaceae were consistently seen increased in CNTNAP2 mice and decreased with 5D supplementation.
P-values were determined using permanova and beta-dispersion tests. FIGS. 29B-29N show results of differential abundance test of ASVs aggregated at the genus level. […] P-values were determined using Wilcoxon rank sum test, values were reported as fold change of median of C57BL/6 controls.

[7] = test system: CNTNAP2 mice; experiment: Lipidomic profiles and triglyceride levels in brain, plasma, liver and stool
From the text: Triglycerides were identified as influential in every tissue measured. Lipids were first aggregated into categories (e.g. triglycerides, phosphocholines), then PCA ordination was applied. […] P-values determined from permanova test between treatments are shown as annotations.
Intensities were normalized using CUDA calibration and were reported as log fold change of median of C57BL/6 wild type controls. P-values were derived from Wilcox rank sum test.

[8] = test system: gene pathways in frontal cortex of CNTNAP2 mice; experiment: RNA-sequencing and gene set enrichment analysis of frontal cortex; conditions: for normalized enrichment score: 5D vs normal chow
Protocol: In this example, to further investigate 5D's effect on neuronal function, RNA-sequencing was performed on the frontal cortex region of CNTNAP2 mice supplemented with 5D after 3 weeks.
Bar size depicts enrichment score normalized by gene set size, and color depicts fdr corrected p-value as determined by gene set enrichment analysis. […] (CNTNAP-NormC: n=5, CNTNAP-5D: n=9)

[9] = significance level 0.05, 12-week old mice
[10] = significance level 0.1, 12-week old mice
[11] = significance level 0.15, 12-week old mice
[12] = treatment average vs Control Average
[13] = frontal cortex of CNTNAP2 mice after 3 weeks
[14] = treatment average vs 5D Average

Question: Which results are given for `CCCCCCC=CCCCC(=O)O` [5D, 5-dodecenoate]?
Answer: Differentially Expressed Gene Pathways in Mouse Brain [1, 9]: 0; Differentially Expressed Gene Pathways in Mouse Brain [1, 10]: 216; Differentially Expressed Gene Pathways in Mouse Brain [1, 11]: 235; EPM closed arms [2]: Yes; EPM open arms [2]: No; active time in the closed arms of the maze [2]: lower active time in the closed arms of the maze than control mice; time spent in closed arms of elevated plus maze [2]: spent less time in the closed arms of the maze; Habituation exploration [3]: Yes; Habituation time in center [3]: Yes; habituation: total distance traveled and exploratory activity [3]: lower total distance traveled and exploratory activity over three days; center ambulatory time ([3]; over time): increase in center ambulatory time over time; time spent in the center of the chamber ([3]; over time): increase in time spent in the center of the chamber over time; Sociability [4]: Yes; time spent with a new mouse, compared among treatments ([4]; mouse, in vivo): spent the most time with a new mouse; time spent with novel mouse ('new') vs known mouse ('old') ([4]; response to social novelty): spent more time with a novel mouse; night-time activity [5]: night-time activity increased; Adjusted p value, comparison of average distance traveled [5, 12]: 0.01466*; Romboutsia ilealis levels ([6]; CNTNAP2 mice): found at very high levels in some CNTNAP2 mice; ten genera of bacteria increased in CNTNAP2 mice compared to C57BL/6 ([6]; Wilcoxon rank sum test): significantly decreased; taxonomic composition of gut microbiota ([6]; oral supplementation, CNTNAP2 mice vs C57BL/6 wild types): shifts the taxonomic composition of CNTNAP2 mice; lipid profiles in brain and stool [7]: tended to shift brain and stool profiles, though this shift was not statistically significant; lipid profiles in plasma and liver [7]: significantly shift CNTNAP2 mouse lipid profiles in plasma and liver; triglyceride levels in brain, liver, plasma and stool ([7]; dietary supplementation): decreased the levels significantly in each of the tissues; normalized enrichment score ([8]; R-MMU-112314 Neurotransmitter receptors and postsynaptic signal transmission): −2.033; normalized enrichment score ([8]; R-MMU-112315 Transmission across Chemical Synapses): −1.846; normalized enrichment score ([8]; R-MMU-112316 Neuronal System): −2.025; normalized enrichment score ([8]; R-MMU-114604 GPVI-mediated activation cascade): 1.832; normalized enrichment score ([8]; R-MMU-181431 Acetylcholine binding and downstream events): −2.154; normalized enrichment score ([8]; R-MMU-195721 Signaling by WNT): −1.416; normalized enrichment score ([8]; R-MMU-198933 Immunoregulatory interactions between a Lymphoid and a non-Lymphoid cell): 1.706; normalized enrichment score ([8]; R-MMU-202733 Cell surface interactions at the vascular wall): 1.736; normalized enrichment score ([8]; R-MMU-216083 Integrin cell surface interactions): 1.99; normalized enrichment score ([8]; R-MMU-397014 Muscle contraction): −1.646; normalized enrichment score ([8]; R-MMU-418360 Platelet calcium homeostasis): −2.258; normalized enrichment score ([8]; R-MMU-419037 NCAM1 interactions): 1.823; normalized enrichment score ([8]; R-MMU-622323 Presynaptic nicotinic acetylcholine receptors): −2.107; normalized enrichment score ([8]; R-MMU-622327 Postsynaptic nicotinic acetylcholine receptors): −2.154; normalized enrichment score ([8]; R-MMU-629594 Highly calcium permeable postsynaptic nicotinic acetylcholine receptors): −2.095; normalized enrichment score ([8]; R-MMU-983168 Antigen processing: Ubiquitination and Proteasome degradation): −1.55; normalized enrichment score ([8]; R-MMU-1296071 Potassium Channels): −1.854; normalized enrichment score ([8]; R-MMU-1296072 Voltage gated Potassium channels): −1.912; normalized enrichment score ([8]; R-MMU-1442490 Collagen degradation): 2.005; normalized enrichment score ([8]; R-MMU-1474228 Degradation of the extracellular matrix): 1.968; normalized enrichment score ([8]; R-MMU-1474244 Extracellular matrix organization): 1.79; normalized enrichment score ([8]; R-MMU-1474290 Collagen formation): 2.185; normalized enrichment score ([8]; R-MMU-1650814 Collagen biosynthesis and modifying enzymes): 2.145; normalized enrichment score ([8]; R-MMU-2022090 Assembly of collagen fibrils and other multimeric structures): 2.261; normalized enrichment score ([8]; R-MMU-2022857 Keratan sulfate degradation): 1.893; normalized enrichment score ([8]; R-MMU-3928664 Ephrin signaling): −2.03; normalized enrichment score ([8]; R-MMU-5576891 Cardiac conduction): −1.669; normalized enrichment score ([8]; R-MMU-5668599 RHO GTPases Activate NADPH Oxidases): 1.842; normalized enrichment score ([8]; R-MMU-5686938 Regulation of TLR by endogenous ligand): 1.963; normalized enrichment score ([8]; R-MMU-6794361 Neurexins and neuroligins): −1.973; normalized enrichment score ([8]; R-MMU-6794362 Protein-protein interactions at synapses): −2.181; normalized enrichment score ([8]; R-MMU-6798695 Neutrophil degranulation): 1.588; normalized enrichment score ([8]; R-MMU-6803157 Antimicrobial peptides): 1.959; normalized enrichment score ([8]; R-MMU-6811436 COPI-independent Golgi-to-ER retrograde traffic): −1.957; normalized enrichment score ([8]; R-MMU-8878159 Transcriptional regulation by RUNX3): −1.748; normalized enrichment score ([8]; R-MMU-8948216 Collagen chain trimerization): 2.098; normalized enrichment score ([8]; R-MMU-8951664 Neddylation): −1.571; expression of collagen, extracellular matrix, cell structure and interaction pathways [8, 13]: increased the expression of pathways such as collagen formation; expression of innate immunity pathways [8, 13]: increased expression of pathways that relate to innate immunity; expression of synapse-dependent pathways [8, 13]: decreased expression of synapse-dependent pathways; genes significantly modulated (p<0.05) [8, 13]: 1438

Question: For `C[C@H](CCC(=O)O)[C@H]1CC[C@H]2[C@@H]3[C@@H](O)C[C@@H]4C[C@H](O)CC[C@]4(C)[C@H]3CC[C@]12C` [UDC, ursodeoxycholate], which “Differentially Expressed Gene Pathways in Mouse Brain” value [1, 9] is on record?
Answer: Its value is 0.

Question: What about the “Differentially Expressed Gene Pathways in Mouse Brain” value [1, 10] of the same molecule?
Answer: Its value is 0.

Question: What about the “Differentially Expressed Gene Pathways in Mouse Brain” value [1, 11] of the same molecule?
Answer: The value was 104.

Question: What about the EPM closed arms [2] of the same molecule?
Answer: Its EPM closed arms is “Yes”.

Question: What about the EPM open arms [2] of the same molecule?
Answer: The EPM open arms was “No”.

Question: What about the “active time in the closed arms of the maze” value [2] of the same molecule?
Answer: Its value is “lower active time in the closed arms of the maze than control mice”.

Question: What about the “time spent in closed arms of elevated plus maze” value [2] of the same molecule?
Answer: Its value is “spent less time in the closed arms of the maze”.

Question: What about the Habituation exploration [3] of the same molecule?
Answer: Its Habituation exploration is “No”.

Question: What about the “Habituation time in center” value [3] of the same molecule?
Answer: The value was “No”.

Question: What about the “habituation: total distance traveled and exploratory activity” value [3] of the same molecule?
Answer: The value was “did not decrease the total distance traveled on day three compared to day two”.

Question: And the Sociability [4]?
Answer: Its Sociability is “No”.

Question: What about the night-time activity [5] of the same molecule?
Answer: The night-time activity was “night-time activity increased”.

Question: And the “Adjusted p value, comparison of average distance traveled” value (shortened to “Adjusted p value, comparison”) [5, 14]?
Answer: Its value is 0.00000000.

Question: And the “Adjusted p value, comparison” value [5, 12]?
Answer: Its value is 0.00000000*.

Question: And the “Adjusted p value, comparison” value ([5]; treatment average vs GDC Average)?
Answer: The value was 0.0000141.

Question: For `CC(=O)N[C@@H](CCC(=O)O)C(=O)O` [N-acetyl-L-glutamate], which “Differentially Expressed Gene Pathways in Mouse Brain” value [1, 9] is on record?
Answer: The value was 82.

Question: What about the “Differentially Expressed Gene Pathways in Mouse Brain” value [1, 10] of the same molecule?
Answer: Its value is 145.

Question: And the “Differentially Expressed Gene Pathways in Mouse Brain” value [1, 11]?
Answer: The value was 177.

Question: How did the “Differentially Expressed Gene Pathways in Mouse Brain” value [1, 9] turn out when `C[C@H](CCC(=O)NCC(=O)O)[C@H]1CC[C@H]2[C@@H]3CC[C@@H]4C[C@H](O)CC[C@]4(C)[C@H]3C[C@H](O)[C@]12C` [GDC, glycodeoxycholate] was run?
Answer: Its value is 153.

Question: What about the “Differentially Expressed Gene Pathways in Mouse Brain” value [1, 10] of the same molecule?
Answer: Its value is 277.

Question: And the “Differentially Expressed Gene Pathways in Mouse Brain” value [1, 11]?
Answer: The value was 291.

Question: And the EPM closed arms [2]?
Answer: The EPM closed arms was “No”.

Question: What about the EPM open arms [2] of the same molecule?
Answer: Its EPM open arms is “No”.

Question: What about the “time spent in closed arms of elevated plus maze” value [2] of the same molecule?
Answer: Its value is “did not spend significantly more time in closed arms than control mice”.

Question: And the Habituation exploration [3]?
Answer: Its Habituation exploration is “Yes”.

Question: What about the “Habituation time in center” value [3] of the same molecule?
Answer: Its value is “No”.

Question: And the “habituation: total distance traveled and exploratory activity” value [3]?
Answer: Its value is “lower total distance traveled and exploratory activity over three days”.

Question: What about the Sociability [4] of the same molecule?
Answer: Its Sociability is “No”.

Question: What about the night-time activity [5] of the same molecule?
Answer: Its night-time activity is “night-time activity increased”.

Question: What about the “Adjusted p value, comparison” value [5, 14] of the same molecule?
Answer: The value was 0.2762.

Question: What about the “Adjusted p value, comparison” value [5, 12] of the same molecule?
Answer: Its value is 0.0000114*.

Question: Which results are given for `N[C@@H](CCC(=O)O)C(=O)O` [Glutamate, glutamate]?
Answer: Differentially Expressed Gene Pathways in Mouse Brain [1, 9]: 0; Differentially Expressed Gene Pathways in Mouse Brain [1, 10]: 0; Differentially Expressed Gene Pathways in Mouse Brain [1, 11]: 107
